According to patent US8906430B2, “Use of hypericum perforatum extracts in the treatment of neuropathic pain” (Aboca S.p.A. Societa' Agricola, priority 2008, dated 2014):

Experiments:
neuropathic pain = assay: Experimental models of neuropathic pain (summary statements); assay type: in vivo, rodents; conditions: for Ability to reduce neuropathic pain: isolated phloroglucinol derivatives
Procedure: The studies were conducted on rodents, which have always constituted a good animal model to reproduce the characteristics of human pain symptoms and predict possible remedies.

[1] = system: mononeuropathy induced by ligature of the sciatic nerve; assay: Right-side mononeuropathy induced by ligature of the sciatic nerve, rat paw pressure test; assay type: in vivo; parameters: unit not given beside the values; conditions: 0.11 mg/kg p.o.
Procedure: Neuropathic pain is characterised by the development of an altered perception of pain, which is manifested as continuous spontaneous pain and hyperalgesia. In this model, the rats were anaesthetised with chloral hydrate 400 mg/kg i.p. or sodium pentobarbital 40 mg/kg i.p. The sciatic nerve was then exposed at thigh level by retracting the femoral biceps. Proximally to the trifurcation of the sciatic nerve, approx. 7 mm of nerve was released from the membranes and 4 loose ligatures were tied round the nerve, approx. 1 mm apart. In another group of animals an identical incision was made, but without the nerve ligature (sham operation). Neuropathy developed in 14 days. The tests with the potentially analgesic substances were performed on the 14th and 21st days after the operation using the paw pressure test (ref. 24).
Using the same method as in Example 2, the following results were obtained by administering hypericin at the doses indicated in Table 6.

[2] = system: monosodium iodoacetate-induced osteoarthritis pain; assay: Pain caused by monosodium iodoacetate-induced osteoarthritis of the knee, rat paw pressure test; assay type: in vivo; conditions: MIA, 0.11 mg/kg p.o.
Source text: The reduction in the pain threshold was induced by a single administration of monoiodoacetate (MIA) into the […] of the rat (Ref. 27). [table]

[3] = system: oxaliplatin-induced hyperalgesia; assay: Oxaliplatin-induced hyperalgesia, rat paw pressure test; assay type: in vivo; conditions: oxaliplatin i.p., hypericin 0.11 mg/kg + CMC p.o., single administration
Procedure: A reduction in the pain threshold was induced by administering oxaliplatin 2.4 mg/kg for 5 consecutive days for a total of 3 weeks. By the end of the treatment period, the pain perception threshold of the rats was statistically lower than that of the controls (Ref. 23). Using the same method as in Example 1, the following results were obtained by administering hypericin at the doses indicated in Table 5.

SMILES: CCC(C)C(=O)[C@@]12C(=O)C(CC=C(C)C)=C(O)[C@@](CC=C(C)C)(C[C@H](CC=C(C)C)[C@@]1(C)CCC=C(C)C)C2=O (stereo partly drawn) [adihyperforin]
- Ability to reduce neuropathic pain (neuropathic pain): unable to reduce neuropathic pain

SMILES: Cc1cc(O)c2c(=O)c3c(O)cc(O)c4c5c(O)cc(O)c6c(=O)c7c(O)cc(C)c8c1c2c(c34)c(c78)c65 [HYPERICIN, hypericin]
- Rat paw pressure test (Paw) ([1]; paw L, 4 min after treatment): 24.8 ± 3.9
- Rat paw pressure test (Paw) ([1]; paw L, 15 min after treatment): 23.8 ± 3.3
- Rat paw pressure test (Paw) ([1]; paw L, 30 min after treatment): 22.7 ± 2.1
- Rat paw pressure test (Paw) ([1]; paw L, 60 min after treatment): 21.5 ± 3.0
- Rat paw pressure test (Paw) ([1]; paw L, before treatment): 21.6 ± 2.7
- Rat paw pressure test (Paw) ([1]; paw R, 4 min after treatment): 41.6 ± 2.7
- Rat paw pressure test (Paw) ([1]; paw R, 15 min after treatment): 28.1 ± 1.2
- Rat paw pressure test (Paw) ([1]; paw R, 30 min after treatment): 43.7 ± 2.0
- Rat paw pressure test (Paw) ([1]; paw R, 60 min after treatment): 25.9 ± 2.2
- Rat paw pressure test (Paw) ([1]; paw R, before treatment): 24.3 ± 4.6
- Rat paw pressure test ([2]; 15 min after treatment): 45.9 ± 2.7
- Rat paw pressure test ([2]; 30 min after treatment): 49.7 ± 3.8
- Rat paw pressure test ([2]; 45 min after treatment): 42.8 ± 3.9
- Rat paw pressure test ([2]; 60 min after treatment): 31.7 ± 3.5
- Rat paw pressure test ([2]; Pre-test): 23.4 ± 3.3
- Pressure on rats' paws ([3]; 3rd week + 15 min): 44.1 ± 2.8 g
- Pressure on rats' paws ([3]; 3rd week + 30 min): 55.0 ± 2.2 g
- Pressure on rats' paws ([3]; 3rd week + 45 min): 53.3 ± 2.6 g
- Pressure on rats' paws ([3]; 3rd week + 60 min): 31.3 ± 3.0 g
- Pressure on rats' paws ([3]; 3rd week Pre-test): 32.4 ± 2.0 g
- Pressure on rats' paws ([3]; Pre-test before all treatments): 63.2 ± 3.5 g
- Activity on neuropathic pain (neuropathic pain; at a dose corresponding to its concentration in freeze-dried extracts): active

SMILES: CC(C)=CCC[C@]1(C)[C@@H](CC=C(C)C)C[C@@]2(CC=C(C)C)C(=O)[C@]1(C(=O)C(C)C)C(=O)C(CC=C(C)C)=C2O [hyperforin]
- Ability to reduce neuropathic pain (neuropathic pain): unable to reduce neuropathic pain
